Test results from the supplement of paper PMC4862054.

System: MFM-223
Assay: drug sensitivity score (DSS), CellTiter-Glo (DSS (AUC-based score)); higher = stronger drug effect (viability inhibition or cytotoxicity); extreme values may be limits of the assay
Conditions: incubation time: 72 h
Method in brief: (§1)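 The drug sensitivity score reflects the area under a fitted dose-response curve. To obtain it, breast cancer cells in 20 µl suspension were seeded into 384-well plates containing compound at 5 concentrations, 10-fold apart over a compound-specific 10,000-fold range, and incubated 72 h. CellTox Green fluorescence (485/520 nm) was read first and CellTiter-Glo luminescence second, after 10 min at room temperature. Each plate was normalised to 0.1 % DMSO and a positive kill control.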

| SMILES | drug sensitivity score |
| --- | --- |
| CN(C)c1nc(N(C)C)nc(N(C)C)n1 [Altretamine] | 0 |
| Nc1cc(C(F)(F)F)c(-c2cc(N3CCOCC3)nc(N3CCOCC3)n2)cn1 [Buparlisib] | 10 |
| CNC(=O)c1ccc(N2C(=S)N(c3ccc(C#N)c(C(F)(F)F)c3)C(=O)C2(C)C)cc1F [Enzalutamide] | 0 |
| CCOC(=O)CCNc1cc(N2CCc3ccccc3CC2)nc(-c2ccccn2)n1 [GSK-J4] | 12.5 |
| Cc1cc(Nc2cc(CN3CCOCC3)c3nc(C)c(Cc4ccc(Cl)cc4F)n3n2)n[nH]1 [Gandotinib] | 5.57 |
| COc1cc2ncnc(Nc3ccc(F)c(Cl)c3)c2cc1OCCCN1CCOCC1 [Gefitinib] | 0 |
| CCc1c2c(nc3ccc(OC(=O)N4CCC(N5CCCCC5)CC4)cc13)-c1cc3c(c(=O)n1C2)COC(=O)[C@]3(O)CC [Irinotecan] | 0 |
| COC(=O)c1ccc2c(c1)NC(=O)/C2=C(\Nc1ccc(N(C)C(=O)CN2CCN(C)CC2)cc1)c1ccccc1 [Nintedanib] | 7.98 |
| CNC(=O)c1ccc(N2C(=S)N(c3ccc(C#N)c(C(F)(F)F)c3)C(=O)C23CCC3)cc1F [RD162] | 0 |
| COc1cc2c(NC3CCN(C(C)C)CC3)nc(N3CCC(F)(F)CC3)nc2cc1OCCCN1CCCC1 [UNC0642] | 3.31 |

System: BT-474
Assay: drug sensitivity score (DSS), CellTox Green (DSS (AUC-based score)); higher = stronger drug effect (viability inhibition or cytotoxicity); extreme values may be limits of the assay
Conditions: incubation time: 72 h
Method in brief: as §1

| SMILES | drug sensitivity score |
| --- | --- |
| CCn1c(-c2nonc2N)nc2cnc(Oc3cccc(NC(=O)c4ccc(OCCN5CCOCC5)cc4)c3)cc21 | 0 |
| N#Cc1ccc(COC[C@H]2O[C@@H](n3c(NCc4ccc(Cl)c(Cl)c4)nc4c(N)ncnc43)[C@H](O)[C@@H]2O)cc1 | 0 |
| COc1cc(O)c2c(c1)/C=C/C[C@H](O)[C@H](O)C(=O)/C=C\C[C@H](C)OC2=O [(5Z)-7-Oxozeaenol] | 1.65 |
| COc1cc(OC2CCN(C)CC2)ccc1Nc1ncc2c(n1)n(C1CCCC1)c(=O)n2C [AZ 3146] | 0 |
| CNC(=O)c1cccc(-c2ccc3c(N4CCOC[C@@H]4C)nc(N4CCOC[C@@H]4C)nc3n2)c1 [AZD2014] | 0 |
| CN(C)c1nc(N(C)C)nc(N(C)C)n1 [Altretamine] | 0 |
| Nc1cc(C(F)(F)F)c(-c2cc(N3CCOCC3)nc(N3CCOCC3)n2)cn1 [Buparlisib] | 3.4 |
| CNC(=O)c1ccc(N2C(=S)N(c3ccc(C#N)c(C(F)(F)F)c3)C(=O)C2(C)C)cc1F [Enzalutamide] | 0 |
| CCOC(=O)CCNc1cc(N2CCc3ccccc3CC2)nc(-c2ccccn2)n1 [GSK-J4] | 19 |
| Cc1cc(Nc2cc(CN3CCOCC3)c3nc(C)c(Cc4ccc(Cl)cc4F)n3n2)n[nH]1 [Gandotinib] | 0 |
| CCc1c2c(nc3ccc(OC(=O)N4CCC(N5CCCCC5)CC4)cc13)-c1cc3c(c(=O)n1C2)COC(=O)[C@]3(O)CC [Irinotecan] | 0 |
| COC(=O)c1ccc2c(c1)NC(=O)/C2=C(\Nc1ccc(N(C)C(=O)CN2CCN(C)CC2)cc1)c1ccccc1 [Nintedanib] | 6.74 |
| CNC(=O)c1ccc(N2C(=S)N(c3ccc(C#N)c(C(F)(F)F)c3)C(=O)C23CCC3)cc1F [RD162] | 0 |
| COc1cc2c(NC3CCN(C(C)C)CC3)nc(N3CCC(F)(F)CC3)nc2cc1OCCCN1CCCC1 [UNC0642] | 6.46 |

System: BT-549
Assay: as above
Conditions: incubation time: 72 h
Method in brief: as §1

| SMILES | drug sensitivity score |
| --- | --- |
| CCn1c(-c2nonc2N)nc2cnc(Oc3cccc(NC(=O)c4ccc(OCCN5CCOCC5)cc4)c3)cc21 | 0 |
| N#Cc1ccc(COC[C@H]2O[C@@H](n3c(NCc4ccc(Cl)c(Cl)c4)nc4c(N)ncnc43)[C@H](O)[C@@H]2O)cc1 | 0 |
| COc1cc(O)c2c(c1)/C=C/C[C@H](O)[C@H](O)C(=O)/C=C\C[C@H](C)OC2=O [(5Z)-7-Oxozeaenol] | 0 |
| COc1cc(OC2CCN(C)CC2)ccc1Nc1ncc2c(n1)n(C1CCCC1)c(=O)n2C [AZ 3146] | 0 |
| CNC(=O)c1cccc(-c2ccc3c(N4CCOC[C@@H]4C)nc(N4CCOC[C@@H]4C)nc3n2)c1 [AZD2014] | 0 |
| CN(C)c1nc(N(C)C)nc(N(C)C)n1 [Altretamine] | 0 |
| Nc1cc(C(F)(F)F)c(-c2cc(N3CCOCC3)nc(N3CCOCC3)n2)cn1 [Buparlisib] | 1.91 |
| CNC(=O)c1ccc(N2C(=S)N(c3ccc(C#N)c(C(F)(F)F)c3)C(=O)C2(C)C)cc1F [Enzalutamide] | 0 |
| CCOC(=O)CCNc1cc(N2CCc3ccccc3CC2)nc(-c2ccccn2)n1 [GSK-J4] | 7.69 |
| Cc1cc(Nc2cc(CN3CCOCC3)c3nc(C)c(Cc4ccc(Cl)cc4F)n3n2)n[nH]1 [Gandotinib] | 0 |
| COc1cc2ncnc(Nc3ccc(F)c(Cl)c3)c2cc1OCCCN1CCOCC1 [Gefitinib] | 0 |
| CCc1c2c(nc3ccc(OC(=O)N4CCC(N5CCCCC5)CC4)cc13)-c1cc3c(c(=O)n1C2)COC(=O)[C@]3(O)CC [Irinotecan] | 0 |
| COC(=O)c1ccc2c(c1)NC(=O)/C2=C(\Nc1ccc(N(C)C(=O)CN2CCN(C)CC2)cc1)c1ccccc1 [Nintedanib] | 2.06 |
| CNC(=O)c1ccc(N2C(=S)N(c3ccc(C#N)c(C(F)(F)F)c3)C(=O)C23CCC3)cc1F [RD162] | 0 |
| COc1cc2c(NC3CCN(C(C)C)CC3)nc(N3CCC(F)(F)CC3)nc2cc1OCCCN1CCCC1 [UNC0642] | 0 |
